The results in this text go back to ChEMBL document CHEMBL1133073, “Structure-activity relationships of carboxymethylpullulan-peptide-doxorubicin conjugates--systematic modification of peptide spacers” (Bioorg Med Chem Lett, 2000).

The subject of data set [1] is Rattus norvegicus. Briefly: In vivo heart distribution of free doxorubicin after 6 hr intravenous administration of 2.5 mg/kg of compound in rat bearing Walker 256 cells. The format is ADME, organism-based. More on the design: dose 2.5 mg/kg, route intravenous.
Data set [2] relates to Rattus norvegicus. Briefly: In vivo liver distribution of free doxorubicin after 6 hr intravenous administration of 2.5 mg/kg of compound in rat bearing Walker 256 cells. The class given is ADME, organism-based. Also on record: dose 2.5 mg/kg, route intravenous.
For data set [3], the system named is Rattus norvegicus. Briefly: In vivo liver distribution of total doxorubicin after 6 h intravenous administration of 2.5 mg/kg of compound in rat bearing Walker 256 cells. The format is ADME, organism-based. More on the design: dose 2.5 mg/kg, route intravenous.
Data set [4] has as its system Rattus norvegicus. Briefly: In vivo plasma distribution of free doxorubicin after 6 h intravenous administration of 2.5 mg/kg of compound in rat bearing Walker 256 cells. The class given is ADME, organism-based. Also on record: dose 2.5 mg/kg, route intravenous.
Data set [5] deals with Rattus norvegicus. Briefly: In vivo plasma distribution of total doxorubicin after 6 hr intravenous administration of 2.5 mg/kg of compound in rat bearing Walker 256 cells. The class given is ADME, organism-based. More on the design: dose 2.5 mg/kg, route intravenous.
In data set [6] the test system is Rattus norvegicus. Briefly: In vivo spleen distribution of total doxorubicin after 6 hr intravenous administration of 2.5 mg/kg of compound in rat bearing Walker 256 cells. The class given is ADME, organism-based. Also on record: dose 2.5 mg/kg, route intravenous.
For data set [7], the system named is Rattus norvegicus. Briefly: In vivo tumor distribution of free doxorubicin after 6 h intravenous administration of 2.5 mg/kg of compound in rat bearing Walker 256 cells. The class given is ADME, organism-based. Also on record: dose 2.5 mg/kg, route intravenous.
Data set [8] is filed under the species Rattus norvegicus. Briefly: Effective dose was measured in rats. The format is functional.
Data set [9] concerns Rattus norvegicus. Briefly: In vivo tumor distribution of total doxorubicin after 6 hr intravenous administration of 2.5 mg/kg of compound in rat bearing Walker 256 cells. The format is ADME, organism-based. Also on record: dose 2.5 mg/kg, route intravenous.

With `COc1cccc2c1C(=O)c1c(O)c3c(c(O)c1C2=O)C[C@@](O)(C(=O)CO)C[C@@H]3O[C@H]1C[C@H](N)[C@H](O)[C@H](C)O1` [DOXORUBICIN], the Dose/g tissue with Rattus norvegicus [1] came out at 1.13%; in the data set with Rattus norvegicus [2], 0.56%; with Rattus norvegicus [3] it was 0.54%; with Rattus norvegicus [4], 0%; in the data set on Rattus norvegicus [5], 0%; in the data set with Rattus norvegicus [6] it was 2.21%. Further, the Dose/g tissue came out at 0.24% in the data set on Rattus norvegicus [7] and 0.35% with Rattus norvegicus [9]. This compound displayed an ED50 in the data set listed under Rattus norvegicus [8] of 1.17 mg/kg.
